# Data from patent US11925632B2, “Isoquinoline derivatives for use in treating GLUT1 deficiency syndrome” (GLIAPHARM SA, priority 2019, dated 2024).
# “Also recorded” adds a separate entry of the source.
# Key:
# [1] = tested on: GLUT1-DS mice; experiment: Cerebral extracellular lactate and glucose biosensors, GLUT1-DS transgenic mice; format: in vivo, mouse; details: medial prefrontal cortex, 10 mg/kg and/or 100 mg/kg oral, AUC ratio vs vehicle
# Source text: (§1) Transgenic mice on 129/SvJ genetic background in which GLUT1 has been knocked-down (GLUT1-DS mice) were used (Wang et al., […], Human Molecular Genetics, 15(7)). Mating colonies were composed of wild-type female mice and GLUT1-DS male mice, or GLUT1-DS female mice and wild-type male mice. F1 pups were genotyped after ear punching at weaning using PCR to determine genotype. Mice of 2 to 3 months of age were used.
# (§2) Cerebral extracellular levels of lactate and glucose were monitored in vivo in GLUT1-DS transgenic male mice and wild-type (WT) male littermates using lactate and glucose biosensors (Pinnacle Technology), according to the manufacturer's instructions. […] After surgery, mice were monitored closely and received analgesic treatment for at least 4 days. After mice had fully recovered from surgery, compounds of the invention of vehicle were administered per os as previously described and cerebral levels of extracellular lactate or glucose were dynamically recorded for 6 hours using lactate or glucose biosensors, respectively. […] Concentration of cerebral extracellular lactate or glucose was calculated from lactate or glucose probe electric signals, respectively, using post-calibration values, as described by manufacturer. […]
# [2] = tested on: primary mouse astrocytes; experiment: Extracellular lactate quantification (lactate release from primary astrocytes); format: cell-based
# Experimental: Primary cultures of cerebrocortical astrocytes were obtained from 1 to 2-day-old OF1 mouse pups (Charles River). Briefly, cortices were isolated and minced in small pieces under a dissecting microscope. The cells were incubated for 30 min at 37° C. in a solution containing 20 U/ml papain, 1 mM L-cysteine and 10 kU/ml DNase I. After dissociation, papain activity was stopped by the addition of fetal calf serum (FCS). Single-cell suspension was then obtained by mechanical dissociation, which consisted in cells trituration in a DMEM D7777 medium supplemented with 44 mm NaHCO3, 10 ml/L antibiotic/antimycotic solution and 10% FCS. The cells were seeded at an average density of ˜10′000 cells/cm^2 on poly-D-lysine coated 96- or 12-well culture plates, depending on their use, and grown in DMEM D7777 medium supplemented with 44 mm NaHCO3, 10 ml/L antibiotic/antimycotic solution and 10% FCS at 37° C. in a humidified atmosphere containing 5% CO2/95% air. Culture medium was renewed twice a week. Cells were stimulated and harvested between DIV14 and DIV17, when confluence and cell growth were optimal.
# (§3) Secretion of L-lactate was measured in the extracellular medium of 96-well plated astrocytes after 90 min stimulation (at 37° C., in 5% CO2/95% air conditions) with Vehicle (DMSO), the compounds of the invention (100 nM to 100 μM) or positive control. […] Stimulation medium was composed of D5030 medium complemented with 5 mM D-glucose and 44 mM sodium bicarbonate, pH 7.2. To quantify lactate concentrations in the extracellular medium, 200 μl of a 0.2M Glycine-semicarbazide buffer (pH 10) containing 3 mM NAD and 14 U/ml LDH was added to each well of a 96-well plate containing 30 μl aliquots of extracellular medium. Samples were incubated at 37° C. for 1 h. Fluorescence intensity (340 nm excitation/450 nm emission), which represents the amount of NADH produced, was measured, and lactate concentration values were determined relative to a standard curve of L-lactate concentrations.
# The release of lactate from primary mouse astrocytes treated with compound (1) at 10 μM was quantified by (FIG. 1). Accumulation of lactate in the extracellular medium was measured over a period of 1.5 h. […] Maximal effects of the compounds were 38.6% (1), 38% (2), 31% (4) and 76% (3) when compared to the effect of the positive control (100%) for compounds (1) to (4), respectively.
# [3] = tested on: astrocytes transfected with GLUT1 siRNA; experiment: Lactate secretion, GLUT1 siRNA astrocytes (cellular model of GLUT1-DS); format: cell-based, mouse; details: vs vehicle
# Experimental: as §3
# Scramble and GLUT1 siRNA sequences were as following:
# Cells were grown in transfection medium for 3 days at 37° C. in a humidified atmosphere containing 5% CO2/95% air. After 3 days, transfection medium was replaced with DMEM D5030 supplemented with 44 mM NaHCO3 and 5 mM D-Glucose (1 ml per well).
# Lactate secretion after treatment with Veh or compound of the invention (1) was measured in astrocytes transfected with scramble siRNA or GLUT1 siRNA (FIG. 4B).
# [4] = tested on: wild-type (WT) mice; experiment: Cerebral extracellular lactate and glucose biosensors, wild-type littermates; format: in vivo, mouse; details: medial prefrontal cortex, 10 mg/kg and/or 100 mg/kg oral, AUC ratio vs vehicle
# Source text: as §1, §2
# [5] = tested on: GLUT1-DS mice; experiment: Rotarod motor function in GLUT1-DS transgenic mice; format: in vivo, mouse; details: 10 mg/kg oral daily for 19 days
# Experimental: as §1
# Motor function was measured in wild-type (WT) and GLUT1-DS transgenic mice in the rotarod after 19-day long treatment with Veh. or Compound (1). Mice were administered every day orally vehicle or Compound (1) at a dose of 10 mg/kg. After 14 days of treatment, mice were exposed to rotarod training, which consisted in placing the mouse on an accelerating rotarod (4 to 40 r.p.m.) during 300 seconds. Mice that felt down before training ended, or at the end of training (300 seconds), were removed and put back to their cages. Training took place over 4 consecutive days, and on each training day mice performed 3 consecutive trials with 15 min inter-trial duration. One day after the last training (on the fifth day), mice were tested on the rotarod. Testing consisted in placing mice on the rotarod at a constant speed of 25 r.p.m. Latencies of mice before falling down were recorded.
compound,measurement,setting,value
"COc1cc2ccnc(Nc3ccc(OC(F)(F)F)cc3)c2cc1OC [Example 1, 6,7-dimethoxy-N-(4-(trifluoromethoxy)phenyl)isoquinolin-1-amine]",Extracellular glucose levels in the brain,[1],significantly increases
same,Extracellular lactate levels in the brain,[1],significantly increases
same,EC50,"[2]; Astrocyte, 1.5 h, primary mouse astrocytes, 90 min stimulation, read-out: EC50 of astrocyte-mediated lactate secretion",7.02 µM
same,Emax,"[2]; Mus musculus, Astrocyte, 1.5 h, positive control CCCP 2 μM, 90 min, read-out: Maximal effect on lactate secretion compared to the effect of the positive control (100%)",38.6%
same,Concentration at which effect on lactate release is already significant,"[2]; primary mouse astrocytes, 90 min",below 1 μM
same,Lactate secretion,[3],restored; also recorded: significantly enhances lactate secretion
same,Extracellular glucose levels in the brain,[4],significantly increases
same,Extracellular lactate levels in the brain,[4],significantly increases
same,"Rotarod performance (latency before falling, 25 r.p.m.)",[5],increased rotarod performance
